Laboratory results from patent publication US10499637B2, “Compositions comprising flavonoid-containing extracts from plants of the genus citrus and/or isolated citrus flavonoids and specific cationic surface active agents, and said composition for use as an agent for treating infestations with head lice” (MEDA AB, priority 2009, dated 2019).

How the values were obtained:
[1] = test system: Head lice, Pediculus humanus capitis; assay: Test 1: in-vitro assay with head lice, test substances in basic solution; conditions: for Vitality of the lice after 120 min: dead / Vitality of the lice after 360 min: dead: number of dead lice of 5 incubated; for Vitality of the lice after 120 min: dead / Vitality of the lice after 360 min: dead / Vitality of the lice after 30 min: immobile / Vitality of the lice after 120 min: mobile / Vitality of the lice after 360 min: mobile: basic solution; for Vitality of the lice after 30 min: immobile: number of immobile lice of 5 incubated; for Vitality of the lice after 30 min: mobile / Vitality of the lice after 120 min: mobile / Vitality of the lice after 360 min: mobile: number of mobile lice of 5 incubated; for Vitality of the lice after 30 min: mobile: basic solution 10% lauryl glucoside, 5% glycerin, pH 6.0
Protocol: Head lice, Pediculus humanus capitis, were obtained by combing infested children from whom assent and consent from the parents had been obtained.
Lice were used for the experiments mostly immediately, but not later than 4 hours after removing from the head. Adult lice, mixed sexes, were fully immersed in the test solutions for 3 to 15 minutes, then thoroughly rinsed with plenty of water to remove any residuals of the test medication. Three replicates of 5 or 10 lice each, plus one control for each batch of lice, were used for any test formulation. The lice were transferred to dry filter paper and kept for observation for up to 24 hours.
The solutions were formulated by addition of the tests substances listed in Table 1 to a basic solution consisting of 10% lauryl glucoside, 5% glycerin and purified water ad 100% and adjusted to pH 6.0 with citric acid. In each test solution 5 lice were incubated, in the controls consisting of the basic solution without any additions 10 lice were incubated.
“Dead” means that neither movements of the legs nor of the intestine were observed.
At 30 min only mobile or immobile lice were observed, whereas dead lice were observed only at 120 and 360 min.

Aedes aegypti larvae = assay: Naringin against Aedes aegypti larvae, experiments in applicant's laboratory; conditions: thousand fold higher concentration of naringin than in the literature, without acetonitrile in the assay
Text: A putative insecticidal activity of naringin is of interest in the present context.

## C[C@@H]1O[C@@H](O[C@H]2[C@H](Oc3cc(O)c4c(c3)O[C@H](c3ccc(O)cc3)CC4=O)O[C@H](CO)[C@@H](O)[C@@H]2O)[C@H](O)[C@H](O)[C@H]1O [1.0% naringin, 7-[[2-O-(6-desoxy-α-L-mannopyra-nosyl)-β-D-glucopyranosyl]oxy]-2,3-dihydro-5-hydroxy-2-(4-hydroxy-phenyl)-4H-1-benzopyran-4-one]
[1]
  Vitality of the lice after 120 min: dead: 0
  Vitality of the lice after 360 min: dead: 0
  Vitality of the lice after 30 min: immobile: 0
  Vitality of the lice after 30 min: mobile: 5
  Vitality of the lice after 120 min: mobile: 5
  Vitality of the lice after 360 min: mobile: 5
Aedes aegypti larvae
  killing of Aedes aegypti larvae: did not kill

## O=C1C[C@@H](c2ccc(O)cc2)Oc2cc(O)cc(O)c21 [1.0% naringenin, (S)-2,3-dihydro-5,7-dihydroxy-2-(4-hydroxyphenyl)-4H-1-benzopyran-4-one]
[1]
  Vitality of the lice after 120 min: dead: 0
  Vitality of the lice after 360 min: dead: 0
  Vitality of the lice after 30 min: immobile: 0
  Vitality of the lice after 30 min: mobile: 5
  Vitality of the lice after 120 min: mobile: 5
  Vitality of the lice after 360 min: mobile: 5

## CCCCCCCCCCCCCCCC(=O)NCCC[N+](C)(C)C.[Cl-] [2.0% palmitamidopr., palmitamidopropyltrimonium chloride]
[1]
  Vitality of the lice after 120 min: dead: 0
  Vitality of the lice after 360 min: dead: 1
  Vitality of the lice after 30 min: immobile: 0
  Vitality of the lice after 30 min: mobile: 5
  Vitality of the lice after 120 min: mobile: 5
  Vitality of the lice after 360 min: mobile: 4

## CCCCCCCCCCCCCCCCCCCCCC[N+](C)(C)C.[Cl-] [2.0% behentrim., behentrimonium chloride]
[1]
  Vitality of the lice after 120 min: dead: 0
  Vitality of the lice after 360 min: dead: 0
  Vitality of the lice after 30 min: immobile: 0
  Vitality of the lice after 30 min: mobile: 5
  Vitality of the lice after 120 min: mobile: 5
  Vitality of the lice after 360 min: mobile: 5

## COc1ccc([C@@H]2CC(=O)c3c(O)cc(O[C@@H]4O[C@H](CO[C@@H]5O[C@@H](C)[C@H](O)[C@@H](O)[C@H]5O)[C@@H](O)[C@H](O)[C@H]4O)cc3O2)cc1O [1.0% hesperidin, (2S)-7-((6-O-(6-desoxy-α-L-mannopyranosyl)-β-D-glucopyranosyl)oxy)-2,3-dihydro-5-hydroxy-2-(3-hydroxy-4-methoxyphenyl)-4H-1-benzopyran-4-one]
[1]
  Vitality of the lice after 120 min: dead: 0
  Vitality of the lice after 360 min: dead: 0
  Vitality of the lice after 30 min: immobile: 0
  Vitality of the lice after 30 min: mobile: 5
  Vitality of the lice after 120 min: mobile: 5
  Vitality of the lice after 360 min: mobile: 5

## COc1ccc([C@@H]2CC(=O)c3c(O)cc(O)cc3O2)cc1O [1.0% hesperetin, (S)-2,3-dihydro-5,7-dihydroxy-2-(3-hydroxy-4-methoxyphenyl)-4H-1-benzopyran-4-one]
[1]
  Vitality of the lice after 120 min: dead: 0
  Vitality of the lice after 360 min: dead: 0
  Vitality of the lice after 30 min: immobile: 0
  Vitality of the lice after 30 min: mobile: 5
  Vitality of the lice after 120 min: mobile: 5
  Vitality of the lice after 360 min: mobile: 5
